Experimental data reported in ChEMBL document CHEMBL2146405, “Isomalyngamide A, A-1 and their analogs suppress cancer cell migration in vitro” (Eur J Med Chem, 2011).
One block for each compound: values may come before it. Calls of active or inactive are those of the source. The calls are words filed in the database; no cut-off is given here.

Columns and labels:
[1] = Inhibition of rat liver alpha 2,3-sialyltransferase
MDA-MB-231 [2] = experiment: Antiproliferative activity against human MDA-MB-231 cells at 20 uM after 48 hrs by MTT assay; format: functional; conditions: MDA-MB-231, 48 h
MDA-MB-231 [3] = experiment: Antiproliferative activity against human MDA-MB-231 cells assessed as reduction in cell viability at 50 uM after 48 hrs by MTT assay; format: functional, cell-based
MDA-MB-231 [4] = experiment: cells; conditions: Homo sapiens, MDA-MB-231, 16 h
Description: Antimetastatic activity in human MDA-MB-231 cells assessed as inhibition of serum-induced cellular migration after 16 hrs by Boyden chamber assay

MCF7 [5] = experiment: Antiproliferative activity against human MCF7 cells at 20 uM after 48 hrs by MTT assay; format: functional; conditions: MCF7, 48 h
[6] = Solubility of compound at 10 uM; format: physicochemical
Rattus norvegicus = organism: Rattus norvegicus; experiment: Inhibition of rat liver alpha 2,3-sialyltransferase at 100 uM
MDA-MB-231 [7] = experiment: Antimetastatic activity in human MDA-MB-231 cells assessed as inhibition of cell migration-associated wound closure at 150 nM after 24 hrs of scratching by wound-healing assay; format: functional, cell-based
MDA-MB-231 [8] = experiment: Antiproliferative activity against human MDA-MB-231 cells after 48 hrs by MTT assay; format: functional, cell-based; conditions: MDA-MB-231, 48 h
MCF7 [9] = experiment: Antiproliferative activity against human MCF7 cells after 48 hrs by MTT assay; format: functional, cell-based; conditions: MCF7, 48 h
MDA-MB-231 [10] = experiment: Antimetastatic activity in human MDA-MB-231 cells assessed as inhibition of serum-induced cellular migration at 150 nM after 24 hrs by wound healing assay; format: functional, cell-based
[11] = biological target: Integrin beta-1 (Homo sapiens) (UniProt P05556); experiment: Inhibition of beta1-integrin in human MDA-MB-231 cells after 2 hrs by Western blot analysis; format: cell-based
[12] = biological target: Integrin beta-1 (Homo sapiens) (UniProt P05556); experiment: Inhibition of beta1-integrin in human MDA-MB-231 cells assessed as FAK phosphorylation at Tyr576/Tyr577 after 2 hrs by Western blot analysis; format: cell-based
[13] = biological target: Integrin beta-1 (Homo sapiens) (UniProt P05556); experiment: Inhibition of beta1-integrin in human MDA-MB-231 cells assessed as Akt phosphorylation at Ser473 after 2 hrs by Western blot analysis; format: cell-based
[14] = biological target: Integrin beta-1 (Homo sapiens) (UniProt P05556); experiment: Inhibition of beta1-integrin in human MDA-MB-231 cells assessed as Akt protein level after 2 hrs by Western blot analysis; format: cell-based
[15] = biological target: Integrin beta-1 (Homo sapiens) (UniProt P05556); experiment: Inhibition of beta1-integrin in human MDA-MB-231 cells assessed as FAK protein level after 2 hrs by Western blot analysis; format: cell-based

Chain of Integrin beta-1 (Homo sapiens) (P05556 whole entry): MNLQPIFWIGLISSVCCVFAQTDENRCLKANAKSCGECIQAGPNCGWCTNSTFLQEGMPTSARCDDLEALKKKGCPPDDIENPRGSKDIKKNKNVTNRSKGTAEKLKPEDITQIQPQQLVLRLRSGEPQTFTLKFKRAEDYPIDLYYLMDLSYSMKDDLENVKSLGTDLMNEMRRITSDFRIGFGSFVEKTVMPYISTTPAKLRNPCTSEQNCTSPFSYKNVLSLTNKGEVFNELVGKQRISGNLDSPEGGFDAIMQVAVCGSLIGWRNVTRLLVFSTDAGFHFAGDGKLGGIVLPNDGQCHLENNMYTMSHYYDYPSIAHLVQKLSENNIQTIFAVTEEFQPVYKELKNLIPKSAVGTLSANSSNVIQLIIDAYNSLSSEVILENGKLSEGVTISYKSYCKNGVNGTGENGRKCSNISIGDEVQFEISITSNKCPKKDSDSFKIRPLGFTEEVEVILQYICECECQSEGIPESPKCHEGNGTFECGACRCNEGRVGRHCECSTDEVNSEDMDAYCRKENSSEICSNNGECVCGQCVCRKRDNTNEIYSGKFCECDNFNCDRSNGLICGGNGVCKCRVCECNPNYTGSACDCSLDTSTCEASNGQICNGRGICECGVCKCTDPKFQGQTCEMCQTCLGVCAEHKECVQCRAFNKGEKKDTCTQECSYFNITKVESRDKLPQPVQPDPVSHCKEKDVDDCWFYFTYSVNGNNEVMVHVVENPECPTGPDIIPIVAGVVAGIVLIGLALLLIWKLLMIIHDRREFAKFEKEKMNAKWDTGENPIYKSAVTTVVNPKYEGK

SMILES: CCCCCCCCCCCCCC(=O)N1CC(OC)=CC1=O
- solubility [6]: Insoluble

SMILES: COC1=CC(=O)NC1
- inhibition at 20 µM (MDA-MB-231 [2]): 3%
- inhibition (Rattus norvegicus): inactive
- inhibition at 20 µM (MCF7 [5]): 2%

SMILES: CCCCCCC[C@@H](C/C=C/CCC(=O)N(C)C/C(=C\Cl)C/C(=C\C(=O)N1CC(OC)=CC1=O)OC)OC [ISOMALYNGAMIDE A]
- IC50 [1]: 77.2 µM
- Activity (MDA-MB-231 [7]): Active
- IC50 (MDA-MB-231 [8]): 2.8 µM
- IC50 (MDA-MB-231 [4]): 0.06 µM
- IC50 (MCF7 [9]): 4.6 µM
- Activity (MDA-MB-231 [10]): Active

Continued, in another order:

- IC50 [1]: 37 µM
- IC50 (MDA-MB-231 [4]): 22.7 µM
SMILES: CCCCCCCCCCCCCC(=O)NCCNC(=O)C(C)(C)C(=O)NCC(=O)O
- inhibition at 20 µM (MDA-MB-231 [2]): 0%
- Activity (MDA-MB-231 [3]): inactive
- inhibition at 20 µM (MCF7 [5]): 7%

- inhibition [11]: Dose-dependent effect
- inhibition [12]: Dose-dependent effect
- inhibition [13]: Active
- inhibition [14]: Dose-dependent effect
- inhibition [15]: Dose-dependent effect
SMILES: CCCCCCCCCCCCCC(=O)NCCNC(=O)C(C)(C)C(=O)N1CC(=O)CC1=O
